Measurements from patent publication US20250376461A1, “INDAZOLE DERIVATIVES FOR TREATING TRPM3-MEDIATED DISORDERS” (Katholieke Universiteit Leuven, priority 2022, published 2025).

molecular target: T1, mouse TRPM3α2 (mTRPM3) ion channel (Mus musculus, UniProt J9SQF3); test: TRPM3 ion channel driven Ca2+ uptake, Fluo-4 AM assay, mTRPM3alpha2 overexpressing flip-in HEK293 cells stimulated with pregnenolone sulfate (50 μM); assay type: cell-based; conditions: mTRPM3 overexpressing HEK293 cells stimulated with pregnenolone sulfate (50 μM), activity ranges A, B, C
T1 construct: expressed in transfected cells; host or cells: flip-in HEK293
T1 sequence (J9SQF3 1-1709 isoform J9SQF3-12): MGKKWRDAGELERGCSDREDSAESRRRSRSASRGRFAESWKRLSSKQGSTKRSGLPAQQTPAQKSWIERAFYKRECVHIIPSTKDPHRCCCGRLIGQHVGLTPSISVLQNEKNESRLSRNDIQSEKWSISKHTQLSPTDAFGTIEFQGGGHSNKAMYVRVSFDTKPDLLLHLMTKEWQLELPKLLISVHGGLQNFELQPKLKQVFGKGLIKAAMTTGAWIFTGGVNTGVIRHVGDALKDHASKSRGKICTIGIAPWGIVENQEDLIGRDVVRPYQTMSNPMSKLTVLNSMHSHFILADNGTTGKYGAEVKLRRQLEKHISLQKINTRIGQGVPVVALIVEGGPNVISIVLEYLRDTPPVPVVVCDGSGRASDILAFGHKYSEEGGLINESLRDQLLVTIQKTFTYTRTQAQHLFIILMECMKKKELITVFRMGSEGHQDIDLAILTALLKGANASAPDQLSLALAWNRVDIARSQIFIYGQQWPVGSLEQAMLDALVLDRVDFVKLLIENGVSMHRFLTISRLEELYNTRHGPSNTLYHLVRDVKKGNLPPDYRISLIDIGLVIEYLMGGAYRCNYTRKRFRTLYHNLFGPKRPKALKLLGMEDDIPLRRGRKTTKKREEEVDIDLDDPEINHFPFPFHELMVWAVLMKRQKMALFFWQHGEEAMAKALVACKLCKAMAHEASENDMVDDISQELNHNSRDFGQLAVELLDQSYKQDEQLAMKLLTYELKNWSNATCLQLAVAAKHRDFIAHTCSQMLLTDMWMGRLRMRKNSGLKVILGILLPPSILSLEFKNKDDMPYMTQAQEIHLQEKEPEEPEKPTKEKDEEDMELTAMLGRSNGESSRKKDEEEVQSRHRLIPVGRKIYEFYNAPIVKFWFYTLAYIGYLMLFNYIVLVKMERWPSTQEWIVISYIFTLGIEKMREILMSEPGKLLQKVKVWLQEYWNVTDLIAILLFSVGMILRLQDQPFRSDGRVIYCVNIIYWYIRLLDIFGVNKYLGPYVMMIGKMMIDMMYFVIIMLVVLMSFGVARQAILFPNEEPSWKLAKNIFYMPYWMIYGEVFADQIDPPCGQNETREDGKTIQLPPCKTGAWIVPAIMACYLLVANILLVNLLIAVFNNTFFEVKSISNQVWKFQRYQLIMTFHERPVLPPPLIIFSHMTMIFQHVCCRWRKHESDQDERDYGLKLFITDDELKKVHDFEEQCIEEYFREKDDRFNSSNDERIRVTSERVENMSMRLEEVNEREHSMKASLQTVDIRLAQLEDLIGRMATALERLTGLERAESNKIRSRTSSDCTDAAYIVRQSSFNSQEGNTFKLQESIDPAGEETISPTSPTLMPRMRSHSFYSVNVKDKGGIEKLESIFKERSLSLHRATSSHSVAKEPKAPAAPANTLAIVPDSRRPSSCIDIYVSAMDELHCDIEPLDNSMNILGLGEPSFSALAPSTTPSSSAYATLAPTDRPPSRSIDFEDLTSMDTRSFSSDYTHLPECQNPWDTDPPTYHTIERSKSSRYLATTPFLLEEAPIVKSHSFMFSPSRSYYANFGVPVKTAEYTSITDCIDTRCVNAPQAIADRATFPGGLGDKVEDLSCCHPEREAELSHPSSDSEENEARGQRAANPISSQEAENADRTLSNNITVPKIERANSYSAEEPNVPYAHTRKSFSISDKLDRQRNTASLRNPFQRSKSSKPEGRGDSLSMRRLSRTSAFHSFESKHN
Summary of the method: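 Ca2+ influx via mouse TRPM3α2 was opened with pregnenolone sulfate (50 μM) and tracked by Fluo-4 AM fluorescence at 485/535 nm, read directly after adding about 2000 stably transfected HEK293 cells per well to compound. IC50 values come from percent inhibition scaled to vehicle and positive-control inhibitor signals.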

How did the IC50 turn out when `Cn1nc2ccc(OCc3ccccn3)cc2c1C(=O)NC1(CO)CC1C(F)F` (single isomer, unassigned) [Cpd 237 - En1] was run?
Its IC50 is 1 to 20 µM.

Which IC50 does the source give for `Cn1nc2ccc(OCc3ccccn3)cc2c1C(=O)NC1(CO)CC1C(F)F` (single isomer, unassigned) [Cpd 237 - En2] here?
Its IC50 is > 20 µM.

Which IC50 does the source give for `Cn1nc2ccc(OCc3ccccn3)cc2c1C(=O)NC(CO)c1nccn1C1CC1` (single isomer, unassigned) [Cpd 238 - En1] here?
The IC50 was 1 to 20 µM.

How did the IC50 turn out when `Cn1nc2ccc(OCc3ccccn3)cc2c1C(=O)NC(CO)c1nccn1C1CC1` (single isomer, unassigned) [Cpd 238 - En2] was run?
Its IC50 is 1 to 20 µM.

Which IC50 does the source give for `Cn1ccc(C(C)(CO)NC(=O)c2c3cc(OCc4ccccn4)ccc3nn2C)n1` (single isomer, unassigned) [Cpd 239 - En1] here?
The IC50 was > 20 µM.

Which IC50 does the source give for `Cn1ccc(C(C)(CO)NC(=O)c2c3cc(OCc4ccccn4)ccc3nn2C)n1` (single isomer, unassigned) [Cpd 239 - En2] here?
The IC50 was > 20 µM.

`Cn1nc2ccc(OCc3ccccn3)cc2c1C(=O)NC(CO)CC(N)=O` (single isomer, unassigned) [Cpd 240 - En1, 4-hydroxy-3-({2-methyl-5-[(pyridin-2-yl)methoxy]-2H-indazol-3-yl}formamido)butanamide] was tested. Which IC50 did it give?
Its IC50 is > 20 µM.

For `Cn1nc2ccc(OCc3ccccn3)cc2c1C(=O)NC(CO)CC(N)=O` (single isomer, unassigned) [Cpd 240 - En2, 4-hydroxy-3-({2-methyl-5-[(pyridin-2-yl)methoxy]-2H-indazol-3-yl}formamido)butanamide], which IC50 is on record?
The IC50 was > 20 µM.

With `Cn1nc2ccc(OCc3ccccn3)cc2c1C(=O)NC(CO)C1CCOCC1` (single isomer, unassigned) [Cpd 241 - En1] as the compound, how does the IC50 read?
The IC50 was 1 to 20 µM.

How did the IC50 turn out when `Cn1nc2ccc(OCc3ccccn3)cc2c1C(=O)NC(CO)C1CCOCC1` (single isomer, unassigned) [Cpd 241 - En2] was run?
Its IC50 is > 20 µM.

With `Cn1nc2ccc(OCc3ccccn3)cc2c1C(=O)NC(CO)Cc1ncccn1` (single isomer, unassigned) [Cpd 243 - En1] as the compound, how does the IC50 read?
The IC50 was > 20 µM.

With `Cn1nc2ccc(OCc3ccccn3)cc2c1C(=O)NC(CO)Cc1ncccn1` (single isomer, unassigned) [Cpd 243 - En2] as the compound, how does the IC50 read?
The IC50 was > 20 µM.

`Cn1nc2ccc(OCc3ccccn3)cc2c1C(=O)NCC(O)CC(F)(F)F` (single isomer, unassigned) [Cpd 245 - En1] was tested. Which IC50 did it give?
The IC50 was > 20 µM.

How did the IC50 turn out when `Cn1nc2ccc(OCc3ccccn3)cc2c1C(=O)NCC(O)CC(F)(F)F` (single isomer, unassigned) [Cpd 245 - En2] was run?
Its IC50 is > 20 µM.

`Cn1nc2ccc(OCc3ccccn3)cc2c1C(=O)NC1CNCC1C(F)(F)F` (single isomer, unassigned) [Cpd 246 - En1] was tested. Which IC50 did it give?
The IC50 was > 20 µM.

How did the IC50 turn out when `Cn1nc2ccc(OCc3ccccn3)cc2c1C(=O)NC1CNCC1C(F)(F)F` (single isomer, unassigned) [Cpd 246 - En2] was run?
Its IC50 is < 1 µM.

For `Cn1nc2ccc(OCc3ccccn3)cc2c1C(=O)NC1(CC(F)F)CCCNC1` (single isomer, unassigned) [Cpd 248 - En1], which IC50 is on record?
The IC50 was > 20 µM.

For `Cn1nc2ccc(OCc3ccccn3)cc2c1C(=O)NC1(CC(F)F)CCCNC1` (single isomer, unassigned) [Cpd 248 - En2], which IC50 is on record?
The IC50 was 1 to 20 µM.

With `Cn1ccc(C(CO)NC(=O)c2c3cc(OCc4ccccn4)ccc3nn2C)n1` (single isomer, unassigned) [Cpd 251 - En1] as the compound, how does the IC50 read?
The IC50 was > 20 µM.

How did the IC50 turn out when `Cn1ccc(C(CO)NC(=O)c2c3cc(OCc4ccccn4)ccc3nn2C)n1` (single isomer, unassigned) [Cpd 251 - En2] was run?
The IC50 was > 20 µM.

For `Cn1nc2ccc(OCc3ccccn3)cc2c1C(=O)NC(CO)Cc1ccccn1` (single isomer, unassigned) [Cpd 252 - En1], which IC50 is on record?
Its IC50 is > 20 µM.

Which IC50 does the source give for `Cn1nc2ccc(OCc3ccccn3)cc2c1C(=O)NC(CO)Cc1ccccn1` (single isomer, unassigned) [Cpd 252 - En2] here?
Its IC50 is > 20 µM.

With `Cn1nc2ccc(OCc3ccccn3)cc2c1C(=O)NC1(CO)CCNC1=O` (single isomer, unassigned) [Cpd 253 - En1] as the compound, how does the IC50 read?
The IC50 was < 1 µM.

Which IC50 does the source give for `Cn1nc2ccc(OCc3ccccn3)cc2c1C(=O)NC1(CO)CCNC1=O` (single isomer, unassigned) [Cpd 253 - En2] here?
The IC50 was 1 to 20 µM.
